pKi: −log10 of the molar value.
Target: T1, human 5-hydroxytryptamine-2C (h5-HT2C) receptor (Homo sapiens, UniProt P28335)
T1 construct: expressed in transfected cells; host or cells: CHO (Chinese Hamster Ovary) cells; membranes
T1 sequence (P28335 33-458): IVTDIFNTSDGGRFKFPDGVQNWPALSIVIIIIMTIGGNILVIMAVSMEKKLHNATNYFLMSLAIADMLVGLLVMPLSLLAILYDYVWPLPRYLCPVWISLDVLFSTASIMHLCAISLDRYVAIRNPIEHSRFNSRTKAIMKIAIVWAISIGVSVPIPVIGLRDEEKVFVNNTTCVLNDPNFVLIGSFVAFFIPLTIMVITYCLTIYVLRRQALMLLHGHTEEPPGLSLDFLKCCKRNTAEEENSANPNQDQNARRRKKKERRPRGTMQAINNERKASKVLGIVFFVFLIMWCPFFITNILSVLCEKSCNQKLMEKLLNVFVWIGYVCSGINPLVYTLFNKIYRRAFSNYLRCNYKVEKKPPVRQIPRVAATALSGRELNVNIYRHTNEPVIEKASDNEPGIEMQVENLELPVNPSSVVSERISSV
Experiment: [125I]DOI binding to membranes of CHO cells expressing the human 5-HT2C receptor
Conditions: [125I]DOI radioligand, CHO cell membranes, room temperature 60 min; read-out: 5-HT2C Affinity Ki

| pKi | Structure (SMILES) |
| --- | --- |
| 6.25 | CNCC1Cc2cc(C(F)(F)F)cc(-c3ccc(F)c(Cl)c3)c2O1 (racemic) [Example 525, (±)-{[7-(3-chloro-4-fluorophenyl)-5-(trifluoromethyl)-2,3-dihydro-1-benzofuran-2-yl]methyl}methylamine] |
| 7.70 | Cc1cccc(C)c1-c1cccc2c1CC(CN)O2 (single isomer, unassigned; (-)) [Example 127, (−)-1-[4-(2,6-dimethylphenyl)-2,3-dihydro-1-benzofuran-2-yl]methanamine] |
| 7.43 | NCC1Cc2cccc(-c3ccc(F)c(Cl)c3)c2O1 (racemic) [Example 34, (±)-1-[7-(3-chloro-4-fluorophenyl)-2,3-dihydro-1-benzofuran-2-yl]methanamine] |
| 6.97 | NCC1Cc2cc(F)cc(-c3cccc(F)c3)c2O1 (racemic) [Example 196, (±)-{[5-fluoro-7-(3-fluorophenyl)-2,3-dihydro-1-benzofuran-2-yl]methyl}amine] |
| 6.07 | Cc1ccc(-c2cc(-c3ccccc3)cc3c2OC(CN)C3)cc1 (racemic) [Example 353, (±)-{[7-(4-methylphenyl)-5-phenyl-2,3-dihydro-1-benzofuran-2-yl]methyl}amine] |
| 6.62 | CNCC1Cc2cc(-c3ccccc3)cc(-c3ccccc3OC)c2O1 (racemic) [Example 514, (±)-{[7-(2-methoxyphenyl)-5-phenyl-2,3-dihydro-1-benzofuran-2-yl]methyl}methylamine] |
| 6.49 | NCC1Cc2cc(C(F)(F)F)cc(-c3ccc(Cl)cc3)c2O1 (racemic) [Example 325, (±)-{[5-(trifluoromethyl)-7-(4-chlorophenyl)-2,3-dihydro-1-benzofuran-2-yl]methyl}amine] |
| 7.22 | NCC1Cc2cc(C(F)(F)F)cc(-c3ccc(F)cc3)c2O1 (racemic) [Example 324, (±)-{[5-(trifluoromethyl)-7-(4-fluorophenyl)-2,3-dihydro-1-benzofuran-2-yl]methyl}amine] |
| 6.73 | NCC1Cc2cccc(Nc3cccc(Cl)c3)c2O1 (racemic) [Example 190, (±)-N-[2-(aminomethyl)-2,3-dihydro-1-benzofuran-7-yl]-N-(3-chlorophenyl)amine] |
| 7.08 | NCC1Cc2cc(C(F)(F)F)cc(-c3cccc(F)c3)c2O1 (racemic) [Example 319, (±)-{[5-(trifluoromethyl)-7-(3-fluorophenyl)-2,3-dihydro-1-benzofuran-2-yl]methyl}amine] |
| 6.88 | NCC1Cc2cccc(-c3cccc(C(F)(F)F)c3)c2O1 (single isomer, unassigned; (-)) [Example 135, (−)-1-{7-[3-(trifluoromethyl)phenyl]-2,3-dihydro-1-benzofuran-2-yl}methanamine] |
| 6.32 | CNCC1Cc2cc(C(F)(F)F)cc(-c3ccc(F)c(F)c3)c2O1 (racemic) [Example 522, (±)-N-methyl-1-[7-(3,4-difluorophenyl)-5-(trifluoromethyl)-2,3-dihydro-1-benzofuran-2-yl]methanamine] |
| 6.42 | NCC1Cc2cccc(Nc3ccc(Cl)cc3)c2O1 (racemic) [Example 175, (±)-N-[2-(aminomethyl)-2,3-dihydro-1-benzofuran-7-yl]-N-(4-chlorophenyl)amine] |
| 6.49 | NCC1Cc2cc(C(F)(F)F)cc(-c3ccc(F)c(F)c3)c2O1 (racemic) [Example 334, (±)-{[7-(3,4-difluorophenyl)-5-(trifluoromethyl)-2,3-dihydro-1-benzofuran-2-yl]methyl}amine] |
| 6.37 | Cc1cccc(-c2cc(F)c3c(c2)CC(CN)O3)c1 (racemic) [Example 380, (±)-{[7-fluoro-5-(3-methylphenyl)-2,3-dihydro-1-benzofuran-2-yl]methyl}amine] |
| 9.52 | Cc1ccccc1-c1c(F)ccc2c1OC(CN)C2 (single isomer, unassigned; (+)) [Example 396, (+)-{[6-fluoro-7-(2-methylphenyl)-2,3-dihydro-1-benzofuran-2-yl]methyl}amine] |
| 9.00 | NCC1Cc2cccc(-c3ccccc3F)c2O1 (single isomer, unassigned; (+)) [Example 51, (+)-1-[7-(2-fluorophenyl)-2,3-dihydro-1-benzofuran-2-yl]methanamine] |
| 8.80 | Cc1ccccc1-c1c(F)ccc2c1OC(CN)C2 (single isomer, unassigned; (-)) [Example 397, (−)-{[6-fluoro-7-(2-methylphenyl)-2,3-dihydro-1-benzofuran-2-yl]methyl}amine] |
| 7.24 | COc1cccc(-c2cccc3c2OC(CN)C3)c1OC (single isomer, unassigned; (+)) [Example 157] |
| 7.15 | Cc1ccccc1-c1cc(F)c2c(c1)CC(CN)O2 (racemic) [Example 375, (±)-{[7-fluoro-5-(2-methylphenyl)-2,3-dihydro-1-benzofuran-2-yl]methyl}amine] |

| pKi | Structure (SMILES) |
| --- | --- |
| 5.87 | Cc1ccc(-c2cc(F)c3c(c2)CC(CN)O3)cc1 (racemic) [Example 385, (±)-{[7-fluoro-5-(4-methylphenyl)-2,3-dihydro-1-benzofuran-2-yl]methyl}amine] |
| 6.61 | CNCC1Cc2cc(-c3ccccc3)cc(-c3ccccc3C)c2O1 (racemic) [Example 511, (±)-{[7-(2-methylphenyl)-5-phenyl-2,3-dihydro-1-benzofuran-2-yl]methyl}methylamine] |
| 7.01 | Cc1cccc(-c2cc(C(F)(F)F)cc3c2OC(CN)C3)c1 (racemic) [Example 318, (±)-{[5-(trifluoromethyl)-7-(3-methylphenyl)-2,3-dihydro-1-benzofuran-2-yl]methyl}amine] |
| 6.03 | NCC1Cc2cc(-c3cccc(F)c3)cc(F)c2O1 (racemic) [Example 381, (±)-{[7-fluoro-5-(3-fluorophenyl)-2,3-dihydro-1-benzofuran-2-yl]methyl}amine] |
| 6.56 | Cc1cccc(C)c1-c1cccc2c1CC(CN)O2 (racemic) [Example 125, (±)-1-[4-(2,6-dimethylphenyl)-2,3-dihydro-1-benzofuran-2-yl]methanamine] |
| 7.21 | Cc1cccc(-c2cc(C(F)(F)F)cc3c2OC(CN)C3)c1C (racemic) [Example 328, (±)-{[7-(2,3-dimethylphenyl)-5-(trifluoromethyl)-2,3-dihydro-1-benzofuran-2-yl]methyl}amine] |
| 8.51 | Cc1cc(Cl)ccc1-c1cc(F)cc2c1O[C@@H](CN)C2 [Example 549, {[(2R)-7-(4-chloro-2-methylphenyl)-5-fluoro-2,3-dihydro-1-benzofuran-2-yl]methyl}amine] |
| 5.77 | CNCC1Cc2cc(-c3cccc(OC)c3)cc(F)c2O1 (racemic) [Example 537, (±)-{7-fluoro-5-[3-methoxyphenyl]-2,3-dihydro-1-benzofuran-2-yl}methyl)methylamine] |
| 8.10 | NCC1Cc2cc(Cl)cc(-c3ccsc3)c2O1 (racemic) [Example 90, (±)-(5-chloro-7-thien-3-yl-2,3-dihydro-1-benzofuran-2-yl)methylamine] |
| 6.42 | CNCC1Cc2cc(-c3ccc(C)cc3)cc(F)c2O1 (racemic) [Example 538, (±)-{7-fluoro-5-[4-methylphenyl]-2,3-dihydro-1-benzofuran-2-yl}methyl)methylamine] |
| 7.23 | COc1cccc(-c2cc(C(F)(F)F)cc3c2OC(CN)C3)c1 (racemic) [Example 321, (±)-{[5-(trifluoromethyl)-7-(3-methoxyphenyl)-2,3-dihydro-1-benzofuran-2-yl]methyl}amine] |
| 7.16 | NCC1Cc2cc(Cl)cc(-c3ccc(F)c(Cl)c3)c2O1 (racemic) [Example 259, (±)-{[5-chloro-7-(3-chloro-4-fluorophenyl)-2,3-dihydro-1-benzofuran-2-yl]methyl}amine] |
| 6.33 | CC1(CN)Cc2cc(Cl)cc(-c3cccs3)c2O1 (racemic) [Example 114, (±)-(5-chloro-2-methyl-7-thien-2-yl-2,3-dihydro-1-benzofuran-2-yl)methylamine] |
| 5.67 | CNCC1Cc2cc(-c3ccccc3)cc(-c3ccc(F)cc3F)c2O1 (racemic) [Example 517, (±)-{[7-(2,4-difluorophenyl)-5-phenyl-2,3-dihydro-1-benzofuran-2-yl]methyl}methylamine] |
| 6.50 | CNCC1Cc2cc(-c3ccc(C(F)(F)F)cc3)cc(F)c2O1 (racemic) [Example 541, (±)-{7-fluoro-5-[4-(trifluoromethyl)phenyl]-2,3-dihydro-1-benzofuran-2-yl}methyl)methylamine] |
| 6.30 | NCC1Cc2cc(-c3ccccc3)cc(-c3ccc(F)cc3)c2O1 (racemic) [Example 350, (±)-{[7-(4-fluorophenyl)-5-phenyl-2,3-dihydro-1-benzofuran-2-yl]methyl}amine] |
| 7.19 | COc1ccccc1-c1cc(C(F)(F)F)cc2c1OC(CN)C2 (racemic) [Example 316, (±)-{[5-(trifluoromethyl)-7-(2-methoxyphenyl)-2,3-dihydro-1-benzofuran-2-yl]methyl}amine] |
| 7.49 | NCC1Cc2cccc(-c3cccc4ccccc34)c2O1 (racemic) [Example 33, (±)-1-[7-(1-naphthyl)-2,3-dihydro-1-benzofuran-2-yl]methanamine] |
| 7.59 | COc1cc(Cl)cc2c1OC(CN)C2 (racemic) [Example 111, (±)-1-(5-chloro-7-methoxy-2,3-dihydro-1-benzofuran-2-yl)methanamine] |
